Values quoted from earlier work, collected in patent US11497741B2, “Granules containing diamine derivative” (DAIICHI SANKYO COMPANY, LIMITED, priority 2018, dated 2022).

## CN1CCc2nc(C(=O)N[C@@H]3C[C@@H](C(=O)N(C)C)CC[C@@H]3NC(=O)C(=O)Nc3ccc(Cl)cn3)sc2C1 [Edoxaban, N^1-(5-Chloropyridin-2-yl)-N^2-((1S,2R,4S)-4-[(dimethylamino)carbonyl]-2-{[(5-methyl-4,5,6,7-tetrahydrothiazolo[5,4-c]pyridin-2-yl)carbonyl]amino}cyclohexyl)ethanediamide]
Neutral aqueous solution (neutral buffer solution)
  solubility (water solubility): reduced solubility
Strongly acidic aqueous solution
  solubility: good solubility
